Tests used:
Enterobacter aerogenes = assay: Microbicidal evaluation in nutrient broth, lowest concentration completely preventing growth, Kull synergism calculation; assay type: cell-based; conditions: contact time 15 hours
Method: (§1) Nutrient broth (2.5 g/liter of deionized water) was prepared and dispensed in 5 ml amounts into test tubes and autoclaved for 20 minutes at 121° C. The biocides were added to the test tubes in the desired concentrations, and then 100 microliters of a 24-hour grown suspension of Pseudomonas aeruginosa or Enterobacter aerogenes cells were added to the respective test tubes to give a final count of approximately 10^6 cfu/ml and incubated at 37° C. at the indicated contact times.
(§2) End points for the various mixtures were then compared with the end points for the pure active ingredients alone in concomitantly prepared flasks or test tubes.
(§3) which produced an end point.
(§4) Qb=Lowest concentration of compound B in parts per million, acting alone,
(§5) QA=Lowest concentration of compound A in parts per million, in the mixture,
(§6) QB=Lowest concentration of compound B in parts per million, in the mixture,
(§7) When the sum of QA/Qa and QB/Qb is greater than one, antagonism is indicated. When the sum is equal to one, additivity is indicated. When the sum is less than one, synergism exists.
Contact time was 15 hours. The MCA was obtained by combinations of ammonium sulfate in the form of Oxamine 6150 or Busan 1215 (all from Buckman Laboratories, Memphis, Tenn.) and the oxidant, Bulab 6004 (from Buckman Laboratories). The peracetic acid was from Sigma-Aldrich (32 wt. % in dilute acetic acid) which was diluted in deionized water to desired concentration range prior to adding it to the test systems.

Pseudomonas aeruginosa = assay: as above; assay type: cell-based; conditions: contact time 24 hours, 37° C., approx. 10^6 cfu/ml, complete prevention of growth
Method: as §1, §2, §3, §4, §5, §6, §7
Contact time was 24 hours. The MCA and peracetic acid were obtained in the same manner as Example 1.

[1] = 37° C., approx. 10^6 cfu/ml, complete prevention of growth

Row | Structure (SMILES) | QB/Qb (Enterobacter aerogenes) | Qb, lowest concentration of compound B acting alone which produced an end point (Enterobacter aerogenes; [1]) | Qb, lowest concentration of compound B acting alone which produced an end point (Pseudomonas aeruginosa) | Qa, concentration of compound A acting alone which produced an end point (Enterobacter aerogenes; [1]) | Qa, concentration of compound A acting alone which produced an end point (Pseudomonas aeruginosa)
1 | NCl [monochloramine] | 0.5 | 100 ppm | 50 ppm |  | 
2 | CC(=O)OO [peracetic acid] |  |  |  | 25.0 ppm | 10 ppm
